In patent US8765754B2, “Pyrrolotriazine compounds” (Locus Pharmaceuticals, Inc., priority 2009, dated 2014):

Legend:
Btk = molecular target: T1, Btk (Homo sapiens, UniProt Q06187); experiment: Btk in vitro radioassay (33P-ATP, Poly(Glu,Tyr)); assay type: biochemical; conditions: Btk inhibition; reported after Biological Example 2; read-out: IC50 over Btk
T1 construct: purchased Invitrogen
Description: The diluted solution (1 μl) of the compound of the present invention in DMSO was added to 96-well assay plates. Additionally, Btk kinase solution (39 μL) composed of Btk (1.3 nM, Invitrogen), Tris (12.5 mM; pH7.5), Triton X-100 (0.01%), glycerol (5%), MgCl2 (10 mM), EGTA (1 mM), glycerol 2-phosphate (5 mM), DTT (2 mM) and sodium orthovanadate (0.5 mM) was added to 96-well assay plate. The solution was pre-incubated for 20 minutes at 30° C. Then ATP/peptide solution (10 μL) composed of Poly (Glu, Tyr) (0.20 mg/mL, Sigma) and ^33P-ATP (47 μM, PerkinElmer) was added. After incubating at 30° C. for 12 minutes, the reaction was stopped by adding 10 μL of 0.6M phosphoric acid to each well. The each reaction from the 96-well assay plate was transferred to 96-well filter plate. The reaction mixture was analyzed on the radioactive survey equipment (TopCount NXT HTS; PerkinElmer) to read count efficiency.
The inhibition rate (%) of the compound of the present invention was calculated with the following formula: Inhibition rate(%)={1−(counts−B100)/(B0−B100)}×100 B0: average counts for 0% inhibition control (i.e., no compound) B100: average counts for 100% inhibition control (i.e., no enzyme)
The value of 50% inhibition rate (IC50) for the compounds of the present invention was determined from inhibition curve based on inhibition rate at each concentration of the compound of the present invention.

LynA = LynA (Homo sapiens, UniProt P07948); experiment: Z'-lyte kinase assay (FRET), inhibitory activity to other kinases: LynA; assay type: biochemical; conditions: selectivity ratio, Biological Example 1 and 2
Description: (§1) Btk tyrosine phosphorylation reaction was carried out using Z′-lyte kinase assay kit—Tyr 1 peptide (Invitrogen) consisting of the following reagent (Tyr 1 peptide, Thy 1 phospho-peptide, 5× kinase buffer, ATP, development regent B, development buffer, and stop reagent) and Btk. Btk activity was determined using fluorescence resonance energy transfer (FRET) method.
(§2) The diluted solution (5 μl) of the compound of the present invention in dimethyl sulfoxide (DMSO; Sigma) was added to 96-well assay plates. Additionally, the peptide/kinase solution (10 μl) composed of DL-Dithiothreitol (DTT; 2 mM), Tyr 1 peptide (2 μM), kinase buffer and Btk (5 nM, Invitrogen) was added to the assay plates and the reaction solution was pre-incubated for 20 minutes at 25° C. Then, the ATP solution (5 μl) composed of adenosine triphosphate (ATP; 36 μM) and kinase buffer was added and the reaction solution was incubated for 1 hour at 25° C. After the incubation, the development solution B (10 μl) composed of development reagent B and development buffer was added and the reaction solution was incubated for 1 hour at 25° C. The stop solution (10 μl) was added to each well to arrest the enzyme reaction. The fluorescence emission of each well was measured on a fluorescence plate reader at a wavelength of 445 nm and 520 nm. The phospholyration ratio was determined by the emission rate of the fluorescence at 445 nm to 520 nm according to manufacturer's instruction.
(§3) The inhibition rate (%) of the compounds of the present invention was calculated with the following formula: Inhibition rate(%)=1−{(AX−AB)/(AC−AB)}×100 AX: phospholyration ratio at addition of the compound of the present invention AB: phospholyration ratio at blank AC: phospholyration ratio at only addition of DMSO
(§4) The value of 50% inhibition rate (IC50) for the compound of the present invention was determined from inhibition curve based on inhibition rate at each concentration of the compound of the present invention.
(§5) Research for inhibitory activity to other kinases (such as Lck, Fyn, LynA) was performed in similar procedure above described.

Lck = Lck (Homo sapiens, UniProt P06239); experiment: Z'-lyte kinase assay (FRET), inhibitory activity to other kinases: Lck; assay type: biochemical; conditions: selectivity ratio, Biological Example 1 and 2
Description: as §1
The diluted solution (5 μl) of the compound of the present invention in dimethyl sulfoxide (DMSO; Sigma) was added to 96-well assay plates. Additionally, the peptide/kinase solution (10 μl) composed of DL-Dithiothreitol (DTT; 2 mM), Tyr 1 peptide (2 μM), kinase buffer and Btk (5 nM, Invitrogen) was added to the assay plates and the reaction solution was pre-incubated for 20 minutes at 25° C. […] The fluorescence emission of each well was measured on a fluorescence plate reader at a wavelength of 445 nm and 520 nm. The phospholyration ratio was determined by the emission rate of the fluorescence at 445 nm to 520 nm according to manufacturer's instruction.
as §3, with “DMSO […]” for “DMSO”

Fyn = Fyn (Homo sapiens, UniProt P06241); experiment: Z'-lyte kinase assay (FRET), inhibitory activity to other kinases: Fyn; assay type: biochemical; conditions: selectivity ratio, Biological Example 1 and 2
Description: as §1, §2, §3, §4, §5

[1] = Pharmacokinetic profile in rats; assay type: in vivo; conditions: rat, plasma, fasted male Sprague-Dawley rats
Description: Using fasted male Sprague-Dawley rats (250-400 gram; Hilltop Labs), the plasma concentration of the compound of the present invention after intravenous administration at a dose of 1 mg/kg and the plasma concentration after oral gavage administration at a dose of 2 mg/kg were measured. The blood samples (˜0.25 mL) was collected from a rat jugular vein under an unanesthetized condition 1, 5, 15, and 30 minutes, and 1, 2, 4, 8, 12 and 24 hours after intravenous administration, and 5, 15 and 30 minutes, and 1, 1.5, 2, 4, 8, 12 and 24 hours after oral administration. Then the blood samples placed into chilled tubes containing sodium heparin and kept on ice until centrifugation. The samples were centrifuged at a temperature of 4° C. at 13,000 rpm for 5 minutes and the supernatant was collected as plasma. The concentration of the compound in plasma was measured with LC/MS/MS (Acquity HPLC coupled with a quattromicro mass spectrometer, Waters Corp.). From the obtained plasma concentration, an area under the curve (AUC, ng·h/ml), a maximum plasma concentration.(Cmax, μg/mL) and a clearance (CL, mL/hr/kg) were calculated. In addition, Bioavailability (B.A.) of the compound of the present invention was calculated from AUC in oral administration and AUC in intravenous administration.

mouse splenocytes = experiment: B cell activation assay using mouse splenocytes (anti-IgM stimulated CD69 in CD19 positive cells, FACS); assay type: cell-based; conditions: Splenocyte; anti-mouse IgM stimulation 6 hours; CD69 MFI in CD19 positive cells
Description: Splenocytes collected from C57B1/6 or Balb/c mice were suspended in RPMI 1640 (Invitrogen), supplemented with 10% fetal bovine serum (FBS). The diluted solution (1 μl) of the compound of the present invention and the suspension of the mouse splenocytes (49 μl) were added to 96-well plate and incubated at 37° C. for 60 min. Cells were stimulated with 10 μl of anti-mouse IgM (Jackson Immunoresearch). Samples were stimulated at 37° C. for 6 hours, 5% CO2 and treated with 10 μl/well Fc block (BD Biosciences) for 15 min on ice in the dark. The diluted solution (10 μl) of antibody (1:2:2 mix of each, Allphycocyanin (APC)-labeled anti-mouse CD3e, Phycoerythrin (PE)-labeled anti-mouse CD19 and Fluorescein Isothiocyanate (FITC) labeled anti-mouse CD69) was added to 96-well collection plate. Samples were transferred to the 96-well collection plate and incubated for 30 min on ice in the dark. Samples were treated with Lyse/Fix solution (1.6 ml/well, BD biosciences) at 37° C. in collection plates and were incubated for at 37° C. for 15 min. Cells were collected by centrifugation at 2000 rpm for 10 min repeatedly, resuspended in stain buffer (BD Biosciences) and analyzed by FACS to determine mean fluorescence intensity (MFI) of CD69 in the CD19 positive cell population. […]

[2] = oral 2 mg/kg / i.v. 1 mg/kg study, route of the value not given

T1 sequence (Q06187 whole entry): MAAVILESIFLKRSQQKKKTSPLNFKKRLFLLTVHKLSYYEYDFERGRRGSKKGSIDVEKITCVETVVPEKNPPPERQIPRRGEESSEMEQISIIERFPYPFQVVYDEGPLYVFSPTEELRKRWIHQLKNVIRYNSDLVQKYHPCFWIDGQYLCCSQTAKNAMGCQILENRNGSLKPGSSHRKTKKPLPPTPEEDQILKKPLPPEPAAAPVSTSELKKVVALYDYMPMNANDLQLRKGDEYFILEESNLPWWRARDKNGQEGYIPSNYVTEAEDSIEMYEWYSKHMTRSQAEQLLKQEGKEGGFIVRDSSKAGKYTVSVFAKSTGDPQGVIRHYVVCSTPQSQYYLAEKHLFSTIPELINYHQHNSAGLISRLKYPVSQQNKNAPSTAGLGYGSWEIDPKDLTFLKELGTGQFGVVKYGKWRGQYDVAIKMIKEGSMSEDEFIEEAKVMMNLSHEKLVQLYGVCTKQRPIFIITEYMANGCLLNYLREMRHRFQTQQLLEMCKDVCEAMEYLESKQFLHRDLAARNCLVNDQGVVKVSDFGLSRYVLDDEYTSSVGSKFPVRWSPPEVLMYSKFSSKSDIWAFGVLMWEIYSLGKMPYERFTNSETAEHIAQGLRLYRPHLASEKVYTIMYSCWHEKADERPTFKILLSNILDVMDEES
LynA, sequence (P07948 whole entry): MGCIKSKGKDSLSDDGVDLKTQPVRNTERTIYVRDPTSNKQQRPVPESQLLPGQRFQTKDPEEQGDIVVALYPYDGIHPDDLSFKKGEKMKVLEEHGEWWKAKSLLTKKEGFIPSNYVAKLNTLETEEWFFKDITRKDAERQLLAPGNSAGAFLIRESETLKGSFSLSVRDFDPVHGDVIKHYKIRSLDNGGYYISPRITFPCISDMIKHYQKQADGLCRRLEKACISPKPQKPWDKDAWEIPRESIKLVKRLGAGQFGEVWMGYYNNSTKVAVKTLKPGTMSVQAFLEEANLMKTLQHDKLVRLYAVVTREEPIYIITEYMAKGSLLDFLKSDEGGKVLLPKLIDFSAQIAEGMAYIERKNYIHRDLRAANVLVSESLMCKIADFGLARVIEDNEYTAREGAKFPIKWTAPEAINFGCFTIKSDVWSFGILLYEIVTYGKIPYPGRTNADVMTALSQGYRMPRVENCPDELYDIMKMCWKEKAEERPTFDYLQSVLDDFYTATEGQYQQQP
Fyn, sequence (P06241 whole entry): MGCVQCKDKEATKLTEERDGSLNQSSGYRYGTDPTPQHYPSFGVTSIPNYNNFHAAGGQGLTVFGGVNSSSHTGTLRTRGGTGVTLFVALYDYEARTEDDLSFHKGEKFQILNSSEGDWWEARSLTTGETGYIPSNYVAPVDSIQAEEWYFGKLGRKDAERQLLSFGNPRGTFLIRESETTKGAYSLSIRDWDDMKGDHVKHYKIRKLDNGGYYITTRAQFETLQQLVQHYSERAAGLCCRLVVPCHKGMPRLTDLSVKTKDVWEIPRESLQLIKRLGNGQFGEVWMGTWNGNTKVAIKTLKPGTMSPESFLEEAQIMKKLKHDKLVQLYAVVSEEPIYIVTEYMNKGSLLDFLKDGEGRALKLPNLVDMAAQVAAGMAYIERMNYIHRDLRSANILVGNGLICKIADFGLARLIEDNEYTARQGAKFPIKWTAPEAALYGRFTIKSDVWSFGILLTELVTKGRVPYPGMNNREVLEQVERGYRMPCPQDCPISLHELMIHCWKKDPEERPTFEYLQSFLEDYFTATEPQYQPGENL
Lck, sequence (P06239 whole entry): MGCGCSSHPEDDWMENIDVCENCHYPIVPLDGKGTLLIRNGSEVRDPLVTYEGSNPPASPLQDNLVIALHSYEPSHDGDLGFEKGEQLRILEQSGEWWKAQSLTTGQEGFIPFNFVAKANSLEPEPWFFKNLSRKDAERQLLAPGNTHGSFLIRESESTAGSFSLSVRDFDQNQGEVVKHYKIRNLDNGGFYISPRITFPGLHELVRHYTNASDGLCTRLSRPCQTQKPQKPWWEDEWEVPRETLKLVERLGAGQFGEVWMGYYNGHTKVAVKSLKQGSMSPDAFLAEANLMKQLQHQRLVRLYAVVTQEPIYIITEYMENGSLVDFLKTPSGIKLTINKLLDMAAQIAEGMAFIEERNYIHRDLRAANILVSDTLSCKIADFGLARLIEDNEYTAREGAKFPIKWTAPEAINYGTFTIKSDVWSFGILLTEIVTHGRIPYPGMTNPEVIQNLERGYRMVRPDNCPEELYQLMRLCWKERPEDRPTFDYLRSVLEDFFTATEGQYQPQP

IC50 (Btk) [nM]	LynA[IC50]/Btk[IC50] (LynA)	Fyn[IC50]/Btk[IC50] (Fyn)	Compound	also measured
16	–	–	CCN(CC)CC(=O)N1CCC(c2c(CCCN3CCCC3)c(-c3ccc(Oc4ccc(Cl)c(Cl)c4)c(OC)c3)c3c(N)ncnn23)CC1 [Example 21, 1-(4-(4-amino-5-(4-(3,4-dichlorophenoxy)-3-methoxyphenyl)-6-(3-(pyrrolidin-1-yl)propyl)pyrrolo[2,1-f][1,2,4]triazin-7-yl)piperidin-1-yl)-2-(diethylamino)ethanone]	–
2	1389	7222	C=CC(=O)N1CCCC(c2c(Cl)c(-c3ccc(Oc4cccc(Cl)c4)c(OC)c3)c3c(N)ncnn23)C1 (stereo not drawn) [Example 32, 1-(3-(4-amino-6-chloro-5-(4-(3-chlorophenoxy)-3-methoxyphenyl)pyrrolo[2,1-f][1,2,4]triazin-7-yl)piperidin-1-yl)prop-2-en-1-one]	Lck[IC50]/Btk[IC50] (Lck): 161; clearance ([1]; intravenous, oral 2 mg/kg / i.v. 1 mg/kg study): 17.8 mL/day/kg; bioavailability ([1]; from AUC oral 2 mg/kg and AUC i.v. 1 mg/kg, read-out: B.A. (Bioavailability)): 24%; AUC [1, 2]: 652 ng·h/mL; Cmax [1, 2]: 227 ng/mL; IC50 (mouse splenocytes): 130 nM
62	–	–	COc1cc(-c2c(C3CCNCC3)c(C3CCCC3)n3ncnc(N)c23)ccc1Oc1ccc(Cl)c(Cl)c1 [Example 25(1), 7-cyclopentyl-5-(4-(3,4-dichlorophenoxy)-3-methoxyphenyl)-6-(piperidin-4-yl)pyrrolo[2,1-f][1,2,4]triazin-4-amine]	–
2	10000	>10000	C=CC(=O)N1CCCC(c2c(Cl)c(-c3ccc(Oc4ccc(Cl)c(Cl)c4)c(OC)c3)c3c(N)ncnn23)C1 (stereo not drawn) [Example 32(1), 1-(3-(4-amino-6-chloro-5-(4-(3,4-dichlorophenoxy)-3-methoxyphenyl)pyrrolo[2,1-f][1,2,4]triazin-7-yl)piperidin-1-yl)prop-2-en-1-one]	–

Second part, the molecule before the results:

Compound	IC50 (Btk) [nM]	LynA[IC50]/Btk[IC50] (LynA)	Fyn[IC50]/Btk[IC50] (Fyn)	also measured
COc1cccc(-c2c(CCCN(C)C)c(-c3ccc(Oc4ccccc4)cc3)c3c(N)ncnn23)c1 [Example 16(1), 6-(3-(dimethylamino)propyl)-7-(3-methoxyphenyl)-5-(4-phenoxyphenyl)pyrrolo[2,1-f][1,2,4]triazin-4-amine]	5.8	–	–	–
COc1cccc(-c2c(CCCN3CCCC3)c(-c3ccc(Oc4ccc(Cl)c(Cl)c4)c(OC)c3)c3c(N)ncnn23)c1 [Example 16(3), 5-(4-(3,4-dichlorophenoxy)-3-methoxyphenyl)-7-(3-methoxyphenyl)-6-(3-(pyrrolidin-1-yl)propyl)pyrrolo[2,1-f][1,2,4]triazin-4-amine]	12	78	917	Lck[IC50]/Btk[IC50] (Lck): 40
CCN(CC)CC(=O)N1CCC(c2c(CCCN3CCCC3)c(-c3ccc(Oc4cccc(Cl)c4)c(OC)c3)c3c(N)ncnn23)CC1 [Example 21(1), 1-(4-(4-amino-5-(4-(3-chlorophenoxy)-3-methoxyphenyl)-6-(3-(pyrrolidin-1-yl)propyl)pyrrolo[2,1-f][1,2,4]triazin-7-yl)piperidin-1-yl)-2-(diethylamino)ethanone]	22	–	–	–
COc1cccc(-c2c(CCCN3CCCC3)c(-c3ccc(Oc4ccccc4)cc3)c3c(N)ncnn23)c1 [Example 16(2), 7-(3-methoxyphenyl)-5-(4-phenoxyphenyl)-6-(3-(pyrrolidin-1-yl)propyl)pyrrolo[2,1-f][1,2,4]triazin-4-amine]	65	–	–	–
